These results are taken from patent publication US10472320B2, “Process to prepare phenolic ethylenediamine diacetic acid compounds” (Akzo Nobel Chemicals International B.V., priority 2015, dated 2019).

For the data set the following is noted: for appearance of extracted aqueous ligand solution (precipitate formation): after last methyl isobutyl ketone extraction; for concentration of o,o-HBED in the extracted aqueous ligand solution / concentration of o,o-HBED at which a clear solution was obtained after addition of water: expressed as H4-o,o-HBED; for concentration of o,o-HBED in the extracted aqueous ligand solution: after phenol extraction with methyl isobutyl ketone; for concentration of o,o-HBED at which a clear solution was obtained after addition of water: dilution with water after precipitation. The method, then:
(§1) Phenol was extracted from the reaction mixture with methyl isobutyl ketone (250 ml and 3 times 125 ml).
as §1
(§2) Phenol was extracted from the reaction mixture with methyl isobutyl ketone (75 ml and 3 times 50 ml).
(§3) Phenol was extracted from the reaction mixture with methyl isobutyl ketone (100 ml and 3 times 50 ml).
as §3, §2
Phenol was extracted from the reaction mixture with methyl isobutyl ketone (85 ml and 3 times 50 ml).
as §2

For the compound `O=C(O)CN(CCN(CC(=O)O)Cc1ccccc1O)Cc1ccccc1O` [Example 5, N,N′-di(2-hydroxybenzyl)ethylenediamine-N,N′-diacetic acid], the “appearance of extracted aqueous ligand solution (precipitate formation)” value (from here on “appearance”) is listed as “remained clear without the formation of any precipitates” and the “concentration of o,o-HBED in the extracted aqueous ligand solution” value is on record as “approximately 22%”.
As for `O=C(O)CN(CCN(CC(=O)O)Cc1ccccc1O)Cc1ccccc1O` [Example 7, N,N′-di(2-hydroxybenzyl)ethylenediamine-N,N′-diacetic acid], the “appearance” value is “remained clear without the formation of any precipitates” and the “concentration of o,o-HBED in the extracted aqueous ligand solution” value is “approximately 25%”.
For `O=C(O)CN(CCN(CC(=O)O)Cc1ccccc1O)Cc1ccccc1O` [Example 1, N,N′-di(2-hydroxybenzyl)ethylenediamine-N,N′-diacetic acid], the “concentration of o,o-HBED in the extracted aqueous ligand solution” value is recorded as “approximately 26%”.
In the case of `O=C(O)CN(CCN(CC(=O)O)Cc1ccccc1O)Cc1ccccc1O` [Example 4, N,N′-di(2-hydroxybenzyl)ethylenediamine-N,N′-diacetic acid], the “appearance” value is “remained clear without the formation of any precipitates” and the “concentration of o,o-HBED in the extracted aqueous ligand solution” value is recorded as “approximately 22%”.
As to `O=C(O)CN(CCN(CC(=O)O)Cc1ccccc1O)Cc1ccccc1O` [Example 6, N,N′-di(2-hydroxybenzyl)ethylenediamine-N,N′-diacetic acid], the “concentration of o,o-HBED in the extracted aqueous ligand solution” value is reported as “approximately 22%”.
For the compound `O=C(O)CN(CCN(CC(=O)O)Cc1ccccc1O)Cc1ccccc1O` [Comparative Example 2, N,N′-di(2-hydroxybenzyl)ethylenediamine-N,N′-diacetic acid, reference compound], the “appearance” value was “turned turbid and a lot of product precipitated”; the “concentration of o,o-HBED at which a clear solution was obtained after addition of water” value is 9.6%.
Take `O=C(O)CN(CCN(CC(=O)O)Cc1ccccc1O)Cc1ccccc1O` [Comparative Example 3, N,N′-di(2-hydroxybenzyl)ethylenediamine-N,N′-diacetic acid, reference compound]: the “appearance” value was “turned turbid and a lot of product precipitated”.
For `O=C(O)CN(CCN(CC(=O)O)Cc1ccccc1O)Cc1ccccc1O` [Comparative Example 1, N,N′-di(2-hydroxybenzyl)ethylenediamine-N,N′-diacetic acid, reference compound], the “appearance” value is “soon a large amount of precipitate was formed” and the “concentration of o,o-HBED at which a clear solution was obtained after addition of water” value is “approximately 6.2%”.
For `O=C(O)CN(CCN(CC(=O)O)Cc1ccccc1O)Cc1ccccc1O` [Example 3, N,N′-di(2-hydroxybenzyl)ethylenediamine-N,N′-diacetic acid], the “appearance” value was “became slightly turbid, but the solution could still be handled easily” and the “concentration of o,o-HBED in the extracted aqueous ligand solution” value is listed as “approximately 22%”.
Regarding `O=C(O)CN(CCN(CC(=O)O)Cc1ccccc1O)Cc1ccccc1O` [Example 2, N,N′-di(2-hydroxybenzyl)ethylenediamine-N,N′-diacetic acid], the “appearance” value is “became slightly turbid, but the solution could still be handled easily” and the “concentration of o,o-HBED in the extracted aqueous ligand solution” value is “approximately 23%”.
